This passage reports IC50 results from patent US9340577B2, “HLA binding motifs and peptides and their uses” (priority 1992, dated 2016).

Where only a bound is given, the exact number is not on record here.

By IC50 is commonly meant the concentration that gives 50% inhibition. Higher therefore signals a need for much substance.

One assay has as its target DRB1*0301 (Homo sapiens, UniProt P01903+P01911, A100K/A102G/A103R/A169T/F55Y/I96L/K41T/L162R/M171V/P40S/Q125H/Q178H/Q39Y/R42S/S66N/T106N/T262R/W38E/Y61H). Kind of assay: biochemical. The class given is binding.
For a further assay, the target named is DRB1*1201 (Homo sapiens, UniProt P01903+P01911, A100R/A169T/D57E/D86V/F55L/H45Y/K41T/L162R/M171V/P40S/Q125H/Q178H/Q39Y/Q99D/R42G/S66L/T262R/V114A/V67L/W38E/Y59H/Y61H/Y89S). Kind of assay: biochemical. The class given is binding.

Chain of DRB1*0301 (P01903 26-254 limits assumed, other chains not shown): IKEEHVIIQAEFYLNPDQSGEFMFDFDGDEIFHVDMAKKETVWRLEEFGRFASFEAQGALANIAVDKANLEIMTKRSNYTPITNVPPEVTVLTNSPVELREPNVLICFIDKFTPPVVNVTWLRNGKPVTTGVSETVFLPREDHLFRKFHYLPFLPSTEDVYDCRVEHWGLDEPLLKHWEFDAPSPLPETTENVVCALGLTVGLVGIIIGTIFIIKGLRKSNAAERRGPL

Take `CC(C)C[C@H](NC(=O)[C@@H]1CCCN1C(=O)[C@H](Cc1c[nH]cn1)NC(=O)[C@@H]1CCCN1C(=O)[C@H](Cc1ccccc1)NC(=O)[C@H](CO)NC(=O)[C@H](Cc1c[nH]cn1)NC(=O)[C@H](CO)NC(=O)[C@@H](NC(=O)[C@H](CCC(N)=O)NC(=O)[C@H](Cc1ccccc1)NC(=O)[C@@H](NC(=O)[C@H](CCC(N)=O)NC(=O)CN)C(C)C)C(C)C)C(=O)N[C@@H](Cc1ccc(O)cc1)C(=O)O` [Peptide 68.0069]: the figures for the IC50 against DRB1*0301 and on DRB1*1201 were above 20000 nM and 557 nM, respectively.
In the case of `CC[C@H](C)[C@H](NC(=O)[C@H](CS)NC(=O)[C@H](Cc1c[nH]cn1)NC(=O)[C@H](C)N)C(=O)N[C@@H](CCCNC(=N)N)C(=O)N[C@@H](CC(N)=O)C(=O)N[C@@H](CCCCN)C(=O)N[C@@H](CO)C(=O)N[C@H](C(=O)N[C@H](C(=O)N[C@@H](CC(C)C)C(=O)N[C@@H](CC(C)C)C(=O)NCC(=O)N[C@@H](CCCNC(=N)N)C(=O)N[C@@H](Cc1c[nH]cn1)C(=O)O)[C@@H](C)CC)C(C)C` [Peptide 68.0066], the IC50 is above 20000 nM at DRB1*0301 and 160 nM against DRB1*1201.
Consider `CC[C@H](C)[C@H](NC(=O)[C@@H](N)CCC(N)=O)C(=O)N[C@@H](Cc1ccc(O)cc1)C(=O)N[C@H](C(=O)N[C@@H](C)C(=O)N[C@@H](C)C(=O)N[C@@H](Cc1ccccc1)C(=O)N[C@H](C(=O)N[C@H](C(=O)N[C@@H](CCC(N)=O)C(=O)N[C@@H](C)C(=O)N[C@@H](C)C(=O)N[C@@H](C)C(=O)N[C@@H](CCC(=O)O)C(=O)N[C@H](C(=O)O)[C@@H](C)O)C(C)C)[C@@H](C)O)C(C)C` [Peptide 68.0135], for which the IC50 at DRB1*0301 is above 20000 nM; against DRB1*1201 it was 934 nM.
Consider `CSCC[C@H](NC(=O)[C@@H]1CCCN1C(=O)[C@@H](N)CC(=O)O)C(=O)N[C@@H](Cc1ccccc1)C(=O)N[C@@H](CCCCN)C(=O)N[C@@H](Cc1ccc(O)cc1)C(=O)N[C@@H](Cc1c[nH]cn1)C(=O)N[C@@H](CC(C)C)C(=O)N[C@H](C(=O)N[C@H](C(=O)N[C@@H](C)C(=O)N[C@@H](CCC(N)=O)C(=O)N[C@H](C(=O)N[C@@H](CCCNC(=N)N)C(=O)NCC(=O)O)C(C)C)C(C)C)[C@@H](C)O` [Peptide 68.0118], for which the IC50 against DRB1*0301 is above 20000 nM; at DRB1*1201, 470 nM.
For `CC[C@H](C)[C@H](NC(=O)[C@H](CCC(N)=O)NC(=O)[C@@H](N)CCCNC(=N)N)C(=O)N[C@@H](Cc1ccc(O)cc1)C(=O)N[C@H](C(=O)N[C@@H](C)C(=O)N[C@@H](C)C(=O)N[C@@H](Cc1ccccc1)C(=O)N[C@H](C(=O)N[C@H](C(=O)N[C@@H](CCC(N)=O)C(=O)N[C@@H](C)C(=O)N[C@@H](C)C(=O)N[C@@H](C)C(=O)N[C@@H](CCC(=O)O)C(=O)O)C(C)C)[C@@H](C)O)C(C)C` [Peptide 68.0134] the same measures were above 20000 nM and 609 nM.
Regarding `CC(C)C[C@H](NC(=O)[C@H](CO)NC(=O)[C@H](CC(C)C)NC(=O)[C@H](CO)NC(=O)[C@H](C)NC(=O)[C@H](C)NC(=O)[C@H](CCCNC(=N)N)NC(=O)[C@H](C)NC(=O)[C@H](CC(C)C)NC(=O)[C@H](CC(C)C)NC(=O)[C@H](CC(C)C)NC(=O)[C@@H]1CCCN1C(=O)[C@H](C)NC(=O)[C@H](C)N)C(=O)NCC(=O)O` [Peptide 68.0019], the values for the IC50 against DRB1*0301 and at DRB1*1201 were above 20000 nM and 564 nM, respectively.
As to `CC[C@H](C)[C@H](NC(=O)[C@H](CO)NC(=O)[C@@H](NC(=O)CN)C(C)C)C(=O)N[C@@H](Cc1c[nH]c2ccccc12)C(=O)N[C@@H](CC(N)=O)C(=O)N1CCC[C@H]1C(=O)N[C@H](C(=O)N[C@@H](CC(C)C)C(=O)N[C@@H](CC(C)C)C(=O)N[C@@H](Cc1c[nH]c2ccccc12)C(=O)N[C@@H](CCC(N)=O)C(=O)N1CCC[C@H]1C(=O)N[C@H](C(=O)N1CCC[C@H]1C(=O)O)[C@@H](C)CC)[C@@H](C)CC` [Peptide 68.0034], the IC50 against DRB1*0301 was above 20000 nM; on DRB1*1201, 3900 nM.
As to `CSCC[C@H](NC(=O)[C@@H]1CCCN1C(=O)[C@H](CC(=O)O)NC(=O)[C@@H](N)Cc1ccc(O)cc1)C(=O)N[C@@H](Cc1ccccc1)C(=O)N[C@@H](CCCCN)C(=O)N[C@@H](Cc1ccc(O)cc1)C(=O)N[C@@H](Cc1c[nH]cn1)C(=O)N[C@@H](CC(C)C)C(=O)N[C@H](C(=O)N[C@H](C(=O)N[C@@H](C)C(=O)N[C@@H](CCC(N)=O)C(=O)N[C@H](C(=O)N[C@@H](CCCNC(=N)N)C(=O)O)C(C)C)C(C)C)[C@@H](C)O` [Peptide 68.0117], the IC50 is above 20000 nM at DRB1*0301 and 240 nM against DRB1*1201.
With `CC[C@H](C)[C@H](NC(=O)[C@H](Cc1c[nH]c2ccccc12)NC(=O)[C@@H](NC(=O)[C@@H](NC(=O)[C@H](CO)NC(=O)[C@H](CC(C)C)NC(=O)[C@@H](N)[C@@H](C)O)C(C)C)[C@@H](C)O)C(=O)NCC(=O)N[C@@H](C)C(=O)N[C@@H](C)C(=O)N1CCC[C@H]1C(=O)N[C@@H](CC(C)C)C(=O)N[C@H](C(=O)N[C@@H](CC(C)C)C(=O)N[C@@H](CO)C(=O)O)[C@@H](C)CC` [Peptide 68.0058], the IC50 was above 20000 nM against DRB1*0301 and 55 nM against DRB1*1201.
For `CC[C@H](C)[C@H](NC(=O)[C@H](Cc1ccccc1)NC(=O)[C@H](Cc1c[nH]c2ccccc12)NC(=O)CNC(=O)[C@H](Cc1ccccc1)NC(=O)[C@H](CC(C)C)NC(=O)[C@H](Cc1ccccc1)NC(=O)CNC(=O)[C@@H](N)CC(C)C)C(=O)N[C@@H](CCCCN)C(=O)N[C@@H](CO)C(=O)N[C@@H](CO)C(=O)N[C@@H](CC(N)=O)C(=O)N[C@@H](CCC(=O)O)C(=O)N[C@@H](C)C(=O)O` [Peptide 68.0084] the same measures were above 20000 nM and 475 nM.
For `CC[C@H](C)[C@H](NC(=O)[C@H](CC(C)C)NC(=O)[C@H](CCCCN)NC(=O)[C@H](CCCCN)NC(=O)[C@@H](N)Cc1ccc(O)cc1)C(=O)N[C@@H](CCSC)C(=O)N[C@@H](Cc1ccc(O)cc1)C(=O)N[C@@H](CO)C(=O)N[C@@H](C)C(=O)N[C@@H](Cc1c[nH]cn1)C(=O)N[C@@H](CC(=O)O)C(=O)N[C@H](C(=O)N[C@H](C(=O)N[C@H](C(=O)N[C@@H](CO)C(=O)O)C(C)C)[C@@H](C)O)[C@@H](C)O` [Peptide 68.0049] the same measures were above 20000 nM and 928 nM.
In the same order, the values of `CC[C@H](C)[C@H](NC(=O)[C@H](CCCNC(=N)N)NC(=O)[C@@H](N)[C@@H](C)O)C(=O)N[C@@H](Cc1ccc(O)cc1)C(=O)N[C@@H](CC(N)=O)C(=O)N[C@H](C(=O)N[C@H](C(=O)NCC(=O)N[C@H](C(=O)N[C@@H](CC(C)C)C(=O)N[C@@H](CCCNC(=N)N)C(=O)NCC(=O)N[C@@H](C)C(=O)N[C@H](C(=O)N[C@@H](CCC(=O)O)C(=O)O)C(C)C)[C@@H](C)O)[C@@H](C)CC)C(C)C` [Peptide 68.0107] are above 20000 nM and 502 nM.
`CC(C)C[C@H](NC(=O)[C@H](CO)NC(=O)[C@H](CC(C)C)NC(=O)[C@H](CO)NC(=O)[C@H](C)NC(=O)[C@H](C)NC(=O)[C@H](CCCNC(=N)N)NC(=O)[C@H](C)NC(=O)[C@H](CC(C)C)NC(=O)[C@H](CC(C)C)NC(=O)[C@H](CC(C)C)NC(=O)[C@@H]1CCCN1C(=O)[C@H](C)N)C(=O)NCC(=O)N[C@@H](Cc1ccccc1)C(=O)O` [Peptide 68.0020]: the 50% inhibitory concentration (IC50) was above 20000 nM on DRB1*0301 and 225 nM on DRB1*1201.
